Assay results as given in patent US4931569A, “Purification of stable water-soluble dioxetanes” (Tropix, Inc., priority 1988, dated 1990).
Structures can show the parent of a compound that is named as a salt.

Experiments:
alkaline phosphatase = alkaline phosphatase chemiluminescence assay (light emission, Turner 20E Luminometer; sensitivity plot); format: biochemical; settings: for light emission upon reaction with alkaline phosphatase: peaks collected from preparative HPLC (FIG. 1), lyophilized, tested as substrate, FIG. 2
Description: Another such method involves testing the 1,2-dioxetane derivative as a substrate for an enzyme in a chemiluminescence assay (see for example, Example 2 infra), and comparing its behavior to that of an authentic sample of highly pure substrate in the same assay. The light intensity produced per unit amount of the substrate is directly proportional to the degree of purity of the substrate, when compared to the light intensity produced by the highly pure sample. When the light intensity produced from pure and impure substrate is plotted as a function of the molar concentration of the biochemical analyte, a family of parallel sigmoid curves is produced; this is called a sensitivity plot. The sensitivity curve for an impure sample will be shifted to the right of the curve for a pure sample; that is, the assay is less sensitive when using the impure sample. The greater the degree of impurity, the greater the shift of the sensitivity curve to the right. Purification of the crude reaction products of the chemical syntheses of the chemiluminescent, water-soluble 1,2 dioxetane derivatives by the methods of this invention will increase the sensitivity of the assay using the dioxetane product by at least 2-fold, preferably about 10-fold (see Example 6, FIG. 9).
The breakdown product and the AMPPD from FIG. 1 were collected, dried by lyophilization, then tested as a substrate for alkaline phosphatase in a chemiluminescence assay. The details of this assay are provided in copending U S. Pat. Application Ser. No. 889,823, which is incorporated herein by reference to the extent that it discloses assay conditions for alkaline phosphatase. Light emission was determined in a Turner 20E Luminometer.
The alkaline phosphatase chemiluminescent assay was applied to a relatively crude sample of AMPPD from Example 4, FIG. 5, and to an HPLC purified sample of AMPPD from Example 3, FIG. 3D. Light intensity produced in the chemiluminescent assay was plotted as a function of the molar concentration of alkaline phosphatase in the assay mixture (FIG. 9).

[1] = stability of the dioxetane in solution or after lyophilization, followed by analytical HPLC; format: physicochemical
Method: Peak fractions from FIG. 3C were combined, lyophilized, then analyzed by analytical HPLC on a reversed phase PLRP-S analytical column with a gradient of acetonitrile in 0.1% NaHCO3 buffer, pH 8.6, as the mobile phase.
The AMPPD fraction from FIG. 4 was collected, freeze-dried, then fractionated on an analytical size column of Dynamax C-18 using as the mobile phase a gradient of acetonitrile in 0.1% ammonium acetate, pH 7.0.
The 6 minute AMPPD peak from FIG. 4, which eluted with 31% acetonitrile in 0.1% ammonium acetate buffer, pH 7.0, was stored overnight in this solution without concentration, then chromatographed by HPLC on an analytical Dynamax C-18 column in a gradient of acetonitrile in 0.1% ammonium acetate buffer, pH 7.0 (FIG. 6).
When, however, AMPPD in the 6-minute peak from preparative HPLC (FIG. 4) was stored in the presence of the ammonium acetate column effluent for long periods of time at 4° C.

Structure (SMILES) | sensitivity of the chemiluminescent assay relative to crude AMPPD (alkaline phosphatase; HPLC purified sample (FIG. 3D) vs crude sample (FIG. 5), at all concentrations of alkaline phosphatase, FIG. 9) | light emission upon reaction with alkaline phosphatase (alkaline phosphatase) | lowest concentration of alkaline phosphatase that could be detected (alkaline phosphatase; with purified AMPPD as substrate) | stability on brief (overnight) storage in ammonium acetate buffer ([1]; 31% acetonitrile in 0.1% ammonium acetate buffer, pH 7.0, without concentration, FIG. 6) | stability in water ([1]; desalted and non-desalted preparations, analytical HPLC on PLRP-S, FIG. 3D) | stability after lyophilization in the presence of ammonium ions ([1]; freeze-dried from 0.1% ammonium acetate buffer, pH 7.0, analytical HPLC on Dynamax C-18, FIG. 5) | stability on long-term storage in ammonium acetate column effluent ([1]; long periods of time at 4° C. in the dark, analytical HPLC on Dynamax C18, FIG. 7)
COC1(c2cccc(OP(=O)(O)O)c2)OOC12C1CC3CC(C1)CC2C3 (centres unmarked) [AMPPD, 3-(2'-spiroadamantane)-4-methoxy-4-(3"-phosphoryloxy)phenyl-1,2-dioxetane disodium salt] | at least an order of magnitude greater | typical of AMPPD | about 10^-15 M | did not lead to significant breakdown | stable for long periods | unstable | increased breakdown
COC(=O)c1cccc(OP(=O)(O)O)c1 [Breakdown Product] | – | no light emission | – | – | – | – | –
